What was measured:
Assay type in all cases: cell-based, human
[1] = system: Neuritin mRNA; assay: qPCR of target mRNA after siRNA transfection: Neuritin; settings: relative to controls; RNA harvested day 3 post-transfection
Description: (§1) Quantitative PCR. Real-time PCR was performed on an ABI 7700 sequence detection system (Applied Biosystems). To normalize gene expression between mock and infected samples, 18S RNA, beta-Actin and GAPDH were assessed. […] Total RNA was treated with Dnase I (Dnase Free:Ambion) before synthesis of cDNA by random hexamers and Superscript II (Invitrogen). […] Relative expression values between mock and infected samples were calculated by the comparative CT Method as previously described (Moses et al, 2002). […]
(§2) siRNA treatment and Focus Inhibition Assay. siRNA oligonucleotides were designed using the oligoengine design tool (Oligoengine, Seattle, Wash.). […] Cells were monitored for up to 14 days for evidence of foci-formation, as described for the PMO-AS assays. […]
Specifically, FIGS. 6A-D show, according to particular aspects of the present invention, small interfering RNA (siRNA) inhibition of RDC1, Neuritin, INSR and IGFBP2. […] Cells were treated with siRNA and monitored for up to 14 days. To calculate mRNA degradation, mRNA was isolated and qPCR was performed. mRNA levels were calculated relative to a FITC-tagged control siRNA (100%). […]

[2] = system: KSHV-infected DMVEC; assay: siRNA treatment and focus inhibition assay; settings: observed up to 14 days post-transfection
Description: siRNA treatment and Focus Inhibition Assay. siRNA oligonucleotides were designed using the oligoengine design tool (Oligoengine, Seattle, Wash.). RNA olionucleotides were purchased from Oligoengine or Dharmacon Inc. (Lafayette, Colo.). […] The twenty-one nucleotide RNA oligos were resuspended according to manufacturer's instructions to obtain either 20 microM or 50 microM solutions and delivered to DMVEC by transfection. For transfection, cells were seeded into 35 mm plates for overnight incubation, and transfections were performed at approximately 80% confluence according to published methods. Briefly, from a 20 microM siRNA stock solution, 12 microL of siRNA was added (240 pmol) to 200 microL OPTI-MEM medium (Gibco). After a 10 minute incubation, 12 microL Oligofectamine (Invitrogen) diluted in 48 microL OPTI-MEM was mixed with the diluted siRNA and incubated for an addition 20 minutes. The complex was added dropwise to a […] containing 1 ml of complete endothelial growth medium. Cells were monitored for up to 14 days for evidence of foci-formation, as described for the PMO-AS assays. Control Cy3-Luciferase GL2 Duplex siRNA (Dharmacon) was used to monitor transient tranfection and the duration of siRNA expression in endothelial cells. Cy3 siRNA was visible for over 3 weeks post-transfection. […]

[3] = system: RDC1 mRNA; assay: qPCR of target mRNA after siRNA transfection: RDC1; settings: relative to FITC-tagged control siRNA or transfection reagent alone; KSHV-DMVEC
Description: as §1, §2
Specifically, FIGS. 6A-D show, according to particular aspects of the present invention, small interfering RNA (siRNA) inhibition of RDC1, Neuritin, INSR and IGFBP2. […] Cells were treated with siRNA and monitored for up to 14 days. To calculate mRNA degradation, mRNA was isolated and qPCR was performed. mRNA levels were calculated relative to a FITC-tagged control siRNA (100%).

Neuritin siRNA: Neuritin siRNA, AAAGATATCTGATTAATTCCA (SEQ ID NO:42) (guide AAAGATATCTGATTAATTCCA; listed as DNA, chemistry not given here)
reduction in Neuritin mRNA levels [1]: 63%
KSHV-induced focus formation / contact inhibition after siRNA [2]: maintained contact-inhibited growth

RDC1 siRNA #1: RDC1 siRNA giving the larger mRNA decrease; presumably RDC1-234, AACATGCCCAACAAAAGCGTC (guide AACATGCCCAACAAAAGCGTC; listed as DNA, chemistry not given here)
reduction of RDC1 mRNA [3]: 56%
KSHV-induced focus formation / contact inhibition after siRNA [2]: more stringent maintenance of contact inhibition

Source: patent US20070072209A1, “Methods of treatment and diagnosis of Kaposi's sarcoma (KS) and KS related diseases” (priority 2005, published 2007)
